Laboratory results: PubChem BioAssay (NCI)
Values joined by “and” are separate entries in the source; they are usually repeats but may differ in a detail not shown here. Equal entries are not always repeated.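 Interpolation was linear, between the two tested concentrations surrounding the appropriate level; five concentrations were tested over 48 hours in 96-well plates. GI50 marks 50% less growth. TGI marks complete inhibition of growth.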

Each molecule was assayed on M14 melanoma (assay: NCI anticancer screen, dose series, 48 h).
`COC(=O)CC(=O)OSc1ccccc1` gave a TGI of 38.7 µM. Work on `CC(C)C(Br)CCC1=CCC(Br)(Br)C1` (stereo not drawn) yielded a TGI of 12.9 µM. `Cc1cc([N+](=O)[O-])c(C)c2c1[nH]c1ccc(Cl)cc12` showed a TGI of over 100 µM. In the case of `COCOc1ccc(C(=O)Oc2cccc3c2OC(C)(C)O3)c(OCOC)c1`, the TGI is reported as over 100 µM. `COC(=O)CNC(=O)C(CSC(=O)OCC1c2ccccc2-c2ccccc21)NC(=O)CCC(NC(=O)OCC1c2ccccc2-c2ccccc21)C(=O)OC` (stereo not drawn) showed a TGI of 58.9 µM. Work on `COc1ccc(CNc2cnc3ccc(N)cc3n2)cc1` yielded a TGI of over 100 µM. For `COc1cc2ccc3c4cc(OC)c(OC)cc4c[n+](C)c3c2cc1O`, the TGI was over 100 µM. `COc1cccc(C2c3cc4c(cc3OC(O)C2C)OCO4)c1OC` (stereo not drawn) gave a TGI of 50.9 µM. Work on `CCOC(=O)/C=C/c1nc(C#N)c(N)o1` yielded a TGI of over 100 µM.

These molecules were tested on K-562 leukemia (assay: NCI anticancer screen, dose series, 48 h).
`COc1ccc2ccc3oc(=O)c(C)cc3c2c1` showed a TGI of over 100 µM. `CCCCCCN(CCCCCC)C(=S)N/N=C(\C)c1ccccn1` gave a TGI of 4.64 µM. In the case of `CN(C)c1nc(Oc2nc(N(C)C)nc(N(C)C)n2)nc(N(C)C)n1`, the TGI is reported as over 100 µM. `O=c1c(F)cn2c(=O)n1CCCCCCCn1c(=O)c(F)cn(c1=O)CCCCCCC2` was tested, and the TGI was over 100 µM. `O=C(ON=C1c2ccccc2C(Br)C(Br)c2ccccc21)c1ccccc1` (stereo not drawn) was tested, and the TGI was 8.98 µM. For `CN(C)CCn1c(=O)c2ccc(NCCCN(C)CCCNc3ccc4c(=O)n(CCN(C)C)c(=O)n5c6ccc(O)cc6c(=O)c3c45)c3c(=O)c4cc(O)ccc4n(c1=O)c23`, the TGI was 0.255 µM. `Cn1c2ccccc2n2c3ncccc3c(=O)c(C#N)c12` was tested, and the TGI was over 100 µM. `S=C(Cc1ccc2c(c1)Sc1ccccc1O2)N1CCOCC1` gave a TGI of over 100 µM. With `C[n+]1cc2cc(O)c(O)cc2c2ccc3cc(O)c(O)cc3c21` the TGI was over 37.4 µM. Molecule `COc1ccc(N=Nc2c(-c3c(OC)cc4occc4c3OC)[nH]c(=O)c(C#N)c2C)cc1` has a TGI of over 100 µM. For `O=C(/C=C/c1ccc(Cl)cc1)Oc1ccc(C=C2CCC/C(=C\c3ccc(OC(=O)/C=C/c4ccc(Cl)cc4)cc3)C2=O)cc1`, the TGI was over 100 µM. `c1ccc2c(c1)SCCCS2` showed a TGI of over 100 µM. In the case of `COc1ccc2c(c1)c1c(n2CCN2CCCCC2)-c2cccc(OC)c2CC1`, the TGI is reported as 31.6 µM. For `O=[N+]([O-])c1ccc(C[P+]2(c3ccccc3)CCCCC2)cc1`, the TGI was over 100 µM. For `COc1ccc2nc(NC(=O)/C(C#N)=C/c3ccccc3)sc2c1`, the TGI was over 95.2 µM. With `Cc1c(C)n(-c2ccccc2)c2nc(S(C)=O)nc(S(C)=O)c12` (stereo not drawn) the TGI was 4.28 µM. With `CC1(C)CC(=O)C2=C(C1)C(c1ccccc1Cl)C1C(=O)CC(C)(C)CC1(O)O2` (stereo not drawn) the TGI was over 100 µM. In the case of `Cn1nc(-c2ccc(S(=O)(=O)/N=C(\NN)Nc3ccc(Cl)cc3)s2)cc1C(F)(F)F`, the TGI is reported as 35.4 µM. Work on `C[C@]12CCC3[C@@H](CCC45OC4C(=O)CC[C@]35C)C1Cc1cnn(-c3ccc(F)cc3)c1N2` (stereo partly drawn) yielded a TGI of 66.8 µM. Work on `CCc1c(O)cc(=O)oc1-c1ccc(OC)c(OC)c1` yielded a TGI of over 100 µM. Molecule `Cc1ccc2c(c1C)C(=O)C1(Cc3cc4c(cc3C1=O)CCC4)C2` (stereo not drawn) has a TGI of over 100 µM. Molecule `CCCCI(O)OS(=O)(=O)c1ccc(C)cc1` has a TGI of over 100 µM. `O=C(CCc1cc(O)cc(O)c1)NCCc1cc(OCc2ccccc2)cc(OCc2ccccc2)c1` was tested, and the TGI was 29.7 µM. `Clc1cccc(-c2sc(-c3cccs3)cc2Cc2cccs2)c1` gave a TGI of over 10 µM. With `c1ccc(C2=NC3OC2c2ccccc23)cc1` (stereo not drawn) the TGI was over 10 µM. Work on `O=c1oc2ccc3ccccc3c2cc1-c1cn2ccsc2n1` yielded a TGI of 82.4 µM. `CCOC(=O)CSc1nc(N)c2c(-c3ccccc3)c3c(nc2n1)CCCC3` showed a TGI of over 100 µM. `COC(=O)/C=C(/C=C1/C(C#N)=C(N)N(c2ccc(Cl)cc2)C1(C)/C(=C\C(=O)OC)C(=O)OC)C(=O)OC` (stereo not drawn) gave a TGI of over 100 µM. `Cc1c2ccnc(C(N)=O)c2c(C)c2c1[nH]c1ccccc12` was tested, and the GI50 was 3.9 µM and the TGI was 48.2 µM and > 100 µM. `Cc1ccccc1-c1nc2c(N)nc(N)nc2nc1N` was tested, and the TGI was over 100 µM. `O=c1c2c3c(sc2[nH]c(=S)n1-c1ccccc1)CCCc1ccc([N+](=O)[O-])cc1-3` showed a TGI of 35.3 µM. For `CCOC(=O)c1c(N2CCCC2)[nH]c(=O)c(C(c2ccc(OC)cc2)c2c(O)c(C(=O)OCC)c(N3CCCC3)[nH]c2=O)c1O`, the TGI was over 100 µM. `CC1CC(N2CCOCC2)=Nc2ccccc2N1C` (stereo not drawn) gave a TGI of over 100 µM. Molecule `CCOC1C=CC(=O)C(CO)O1` (stereo not drawn) has a TGI of 26 µM. For `COC(=O)CC(=O)OSc1ccccc1`, the TGI was over 100 µM. Work on `CC(C)C(Br)CCC1=CCC(Br)(Br)C1` (stereo not drawn) yielded a TGI of over 100 µM. Molecule `Cc1cc([N+](=O)[O-])c(C)c2c1[nH]c1ccc(Cl)cc12` has a TGI of over 100 µM. `COCOc1ccc(C(=O)Oc2cccc3c2OC(C)(C)O3)c(OCOC)c1` was tested, and the TGI was over 100 µM. Molecule `COC(=O)CNC(=O)C(CSC(=O)OCC1c2ccccc2-c2ccccc21)NC(=O)CCC(NC(=O)OCC1c2ccccc2-c2ccccc21)C(=O)OC` (stereo not drawn) has a TGI of 82.7 µM. With `COc1ccc(CNc2cnc3ccc(N)cc3n2)cc1` the TGI was over 100 µM. Molecule `COc1cc2ccc3c4cc(OC)c(OC)cc4c[n+](C)c3c2cc1O` has a TGI of over 100 µM. `COc1cccc(C2c3cc4c(cc3OC(O)C2C)OCO4)c1OC` (stereo not drawn) showed a TGI of 15.5 µM. For `CCOC(=O)/C=C/c1nc(C#N)c(N)o1`, the TGI was over 100 µM.
